In patent publication US11358967B2 (Boehringer Ingelheim International GmbH, priority 2016, dated 2022):

target: T1, RORγ (Homo sapiens, UniProt P51449); assay: Reporter Gene Assay (RGA): RORγ transactivation of a luciferase reporter in transiently transfected HEK 293 cells; assay type: cell-based; details: HEK 293 cells cotransfected with pGL4.3 luc2P/GAL4UAS and pBIND Gal4DBD hRORC LBD; 20-24 h incubation; luciferase readout
T1 construct: expressed in transfected cells; host or cells: HEK 293 cells, transiently transfected
T1 sequence (P51449 269-508 limits assumed): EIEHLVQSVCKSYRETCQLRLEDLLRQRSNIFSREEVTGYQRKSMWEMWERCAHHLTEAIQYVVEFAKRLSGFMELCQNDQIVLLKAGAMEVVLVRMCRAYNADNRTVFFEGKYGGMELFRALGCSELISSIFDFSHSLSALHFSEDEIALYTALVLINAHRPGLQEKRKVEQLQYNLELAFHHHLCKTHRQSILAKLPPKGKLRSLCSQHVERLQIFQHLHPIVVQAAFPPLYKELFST
Description: Reporter Gene Assay (RGA)
A nuclear receptor transactivation assay is performed to quantitate the ability of test compounds to inhibit RORγ transactivation of a luciferase reporter. […] The system uses transiently transfected HEK 293 cells cotransfected with two plasmids (pGL4.3, luc2P/GAL4UAS/Hygro, and pBIND, Gal4DBD hRORC LBD1-3). The positive control is co-transiently transfected with both plasmids, and the negative control contains the pGL4.3 promoter sequence. Assays are assembled in 384 well plates where transiently transfected cells and test compound at varying concentrations are incubated for 20-24 h. The next day, assays plates are taken out and equilibrated at RT for 20-30 minutes. Bright-Glo™ Luciferase Assay System is used to detect Luciferase production. After addition of Bright GLO detection reagent, the plates are incubated at RT for 20 minutes. The plates are read on an Envision plate reader to measure luminescence signal. The RLU signal is converted to POC relative to control and blank wells.
Compound Dilution Buffer:
Bright Glo Luciferase Assay System: Promega #E2620
Thaw lysis buffer provided in kit, add 100 mL lysis buffer to substrate powder.

Compound	IC50 [nM]
CCS(=O)(=O)c1ccc(CNc2nc3ncc(-c4c(C)nc(N)nc4C4CC4)nc3n([C@@H](C)C3CC3)c2=O)nc1 [Example 5]	274
CCS(=O)(=O)c1ccc(CNc2nc3ncc(-c4c(OC)ncnc4C4CC4)nc3n([C@@H](C)C3CC3)c2=O)nc1 [Example 3]	149
CC[C@H](C)n1c(=O)c(NCc2ccc(S(=O)(=O)CC)cn2)nc2ncc(-c3c(OC)ncnc3C3CC3)nc21 [Example 7]	210
CCS(=O)(=O)c1ccc(CNc2nc3ncc(-c4c(C)ncnc4C4CC4)nc3n([C@@H](C)C3CC3)c2=O)nc1 [Example 4]	269
CCS(=O)(=O)c1ccc(CNc2nc3ncc(-c4nccnc4C4CC4)nc3n([C@@H](C)C3CC3)c2=O)nc1 [Example 6]	454

Next, values leading:

IC50 [nM]	Compound
338	CC[C@H](C)n1c(=O)c(NCc2ccc(S(=O)(=O)CC)cn2)nc2ncc(-c3c(C)ncnc3C3CC3)nc21 [Example 8]
1330	CC[C@H](C)n1c(=O)c(NCc2ccc(S(C)(=O)=O)cn2)nc2ncc(-c3c(C)ncnc3C3CC3)nc21 [Example 9]
2740	CC[C@H](C)n1c(=O)c(NCc2ccc(S(=O)(=O)CC)nc2)nc2ncc(-c3c(C)ncnc3C3CC3)nc21 [Example 10]
2900	CCS(=O)(=O)c1ccc(CNc2nc3nnc(-c4c(C)ncnc4C4CC4)cc3n([C@@H](C)C3CC3)c2=O)nc1 [Example 12]
